{
  "source": "patent US20030158540A1",
  "about": "“METHOD FOR DECREASING CATHETER-ASSOCIATED BACTERIURIA” (priority 2002, published 2003)",
  "key": {"[1]": {"system": "urinary bag bacterial growth", "details": "daily decontamination with dilute bleach (5.25%); cited from earlier work"}, "[2]": {"system": "types and levels of bacteria in the drainage bag", "assay": "One-time instillation and drainage of irrigation solution into urinary drainage bags of long-term catheterized patients; urine cultures at 24-hour intervals", "format": "in vivo", "details": "for mean values for categories of colony count: score 3 = >100,000, 2 = 10,000 to 100,000, 1 = <10,000; for mean number of different types of organisms identified: about 50 ml one-time dose", "excerpt": "The type of irrigation solution used constituted the independent variable. The irrigation solutions were sterile hydrogen peroxide and sterile distilled vinegar (as used herein, containing about 5 wt. % acetic acid). […] Hydrogen peroxide decomposes rapidly when exposed to light or organic matter. Vinegar is a weak acetic acid solution derived from alcohol by the action of Acetobacter. Vinegar is distilled to remove color and other impurities, yielding what is referred to as white vinegar.\nThe dependent variables of the investigation were the types and levels of bacteria in the drainage bag, at twenty-four hour intervals of incubation, during treatment conditions. A certified laboratory was contracted to determine the germicidal values of the solutions tested. After twenty-four hours of incubation at about 37° C. […], bacterial growth was recorded at twenty-four hour intervals. Laboratory protocol for reporting types and number of bacteria provided results by identification of the organism by species present in the specimen.\nFor the study, a total of fifty-seven subjects were initially identified to participate in the study: fifteen from three hospitals and forty-two from ten skilled nursing facilities. […] Patients who were febrile, acutely ill, receiving antibiotic therapy, or with symptoms of urinary tract infection were excluded based on a review of the patient's chart. Patients with other methods of urinary drainage, such as condom catheter drainage, superpubic catheterization, and intermittent urethral catheterization, were not considered. Moreover, because of the chance of cross-infection, infected and uninfected patients with indwelling urinary catheters who shared the same room or adjacent beds were not considered.\nThe patients were randomly assigned to three experimental groups: one group was designated a control group whose catheter drainage bags were not treated with an irrigation solution; the drainage bags of the remaining groups were treated with one of the two irrigation solutions investigated. The methods of data collection were verified prior to the commencement of the study by use of a literature review and institutional review board pre approval. All urine collection was made between 5:00 A.M. and 6:30 A.M. The urine specimens were promptly refrigerated and transported to the microbiology laboratory. Organisms and colony counts were identified by standard laboratory methods.\nThe research approach carried out in the study comprised four primary steps: (1) collection of urine from the catheter drainage bags for baseline cultures; (2) instillation of the irrigation solution into the drainage bags; (3) collection of urine from the drainage bags at 24-hour intervals; and (4) evaluation of the results of bacterial growth at 24-hour intervals. The initial concentration of bacteria in each drainage bag was determined prior to instillation of the irrigation solution. With regard to the patients in the groups whose drainage bags were treated with hydrogen peroxide or distilled vinegar, the drainage bags (approximate filled volume of about 50 to 150 ml) were emptied of any residual urine, after which the distal segment of the Foley catheter was clamped to avoid any possibility of reagent reflux into the patient's bladder."}, "[3]": {"system": "bacterial contamination of the drainage bag", "details": "30 ml every eight hours; thirty-one patients; cited from earlier work"}, "[4]": {"system": "bacteriuria / bag contamination", "details": "cited from earlier work"}, "[5]": {"system": "catheter-associated urinary tract infections", "details": "30 ml in drainage bags every eight hours, cited from earlier work"}, "[6]": {"details": "forty-eight hours after instillation"}},
  "data": [
    {"smiles": "OCl", "note": "[sodium hypochlorite]", "values": [
      {"measurement": "bag cultures", "setting": "[1]", "result": "≤ 50", "unit": "CFU's/ml"},
      {"measurement": "decrease in urinary bag bacterial growth", "setting": "[1]", "result": 76.5, "unit": "%"}
    ]},
    {"smiles": "OO", "note": "[Hydrogen Peroxide, Hydrogen peroxide]", "values": [
      {"measurement": "mean values for categories of colony count", "setting": "[2]; 00 h (baseline)", "result": 6.2},
      {"measurement": "mean number of different types of organisms identified", "setting": "[2]; 00 h (baseline, before instillation)", "result": 2.6},
      {"measurement": "mean number of different types of organisms identified", "setting": "[2]; 24 h", "result": 2.3},
      {"measurement": "mean values for categories of colony count", "setting": "[2]; 24 h", "result": 5.6},
      {"measurement": "mean number of different types of organisms identified", "setting": "[2]; 48 h", "result": 2.1},
      {"measurement": "mean values for categories of colony count", "setting": "[2]; 48 h", "result": 5.3},
      {"measurement": "mean number of different types of organisms identified", "setting": "[2]; 72 h", "result": 1.5},
      {"measurement": "mean values for categories of colony count", "setting": "[2]; 72 h", "result": 3.8},
      {"measurement": "colonies of bacteria compared to the control group (post hoc analysis)", "setting": "[2]; [6]", "result": "no statistically significant difference"},
      {"measurement": "types of organisms compared to the control group (post hoc analysis)", "setting": "[2]; [6]", "result": "no statistically significant difference"},
      {"measurement": "bacterial contamination of the drainage bag", "setting": "[3]", "result": "could be eliminated effectively"},
      {"measurement": "rate of bacteriuria", "setting": "[4]; instillation of H2O2, N=238", "result": "no reduction"},
      {"measurement": "rate of bag contamination", "setting": "[4]; peroxide group, control group 34%, P≦0.05", "result": 17, "unit": "%"},
      {"measurement": "catheter-associated urinary tract infections", "setting": "[5]; P<0.05", "result": "significant reduction"},
      {"measurement": "bags from which bacteria continued to be isolated", "setting": "[5]", "result": "five of thirty"}
    ]}
  ]
}
